From US8614290B2, “Cancer imaging and treatment” (Technische Universitat Munchen, priority 2007, dated 2013)
Values joined by “and” are separate entries in the source; they are usually repeats but may differ in a detail not shown here. Identical values can stand only once. Peptide text beside a SMILES is read from it.

Columns and labels:
human CXCR4 [1] = biological target: T1, human CXCR4 (Homo sapiens, UniProt P61073); assay: Competitive receptor binding assay on Jurkat cells with 125I-CPCR4 as tracer; design: Jurkat cells that endogenously express the CXCR4 receptor; endogenous in cells; host or cells: Jurkat cells; conditions: Table 4, Orn-Nδ and/or Orn-Nα-modified pentapeptides; read-out: IC50
Experimental: For receptor binding assays cells were resuspended in PBS/0.2% BSA. A total of 200 μl of the suspension containing 400,000 Jurkat cells were incubated with 25 μl of the tracer solution (containing 3.1 kBq, approx. 0.1 nM) and 25 μl of the diluent or the competitor at different concentrations. […] After shaking for 2 h at room temperature, the incubation was terminated by centrifugation at 1300 rpm for 5 min. Cell pellets were washed once with cold PBS followed by a second centrifugation step. Cell bound radioactivity was determined by using a gamma counter. Experiments were repeated 2-3 times in triplicates. IC50 values of the compounds were calculated by nonlinear regression using GraphPad Prism (GraphPad Prism 4.0 Software, Inc., San Diego, Calif., USA). Each data point is the average of three determinations.

human CXCR4 [2] = biological target: T1, human CXCR4; assay: Receptor functionality: FACS staining of surface CXCR4 after pre-incubation with SDF-1α; format: cell-based; design: expressed in transfected cells; host or cells: murine CMS5 fibrosarcoma cells, retroviral vector pBulletCXCR4-IRES-eGFP
Description: CXCR-4 staining was plotted against EGFP fluorescence (FL1).

human CXCR4 [3] = biological target: T1, human CXCR4; assay: Receptor internalization: tracer release after acidic buffer wash; format: cell-based; design: Jurkat cells that endogenously express the CXCR4 receptor; endogenous in cells; host or cells: Jurkat cells; conditions: after two short washing steps with acidic buffer (pH5.0)
Description: Thereafter the tracer was mostly releasable from the receptor (>80%).

human CXCR4 [4] = biological target: T1, human CXCR4; assay: Radioligand (saturation) binding of 125I-CPCR4 on Jurkat and CMS5/CXCR4 cells; design: Jurkat cells that endogenously express the CXCR4 receptor; endogenous in cells; host or cells: Jurkat cells
Experimental: For receptor binding assays cells were resuspended in PBS/0.2% BSA. A total of 200 μl of the suspension containing 400,000 Jurkat cells were incubated with 25 μl of the tracer solution (containing 3.1 kBq, approx. 0.1 nM) and 25 μl of the diluent or the competitor at different concentrations. […] Nonspecific binding was determined in the presence of 1 μM cold cyclo(D-Tyr^1[^127I]-Arg^2-Arg^3-Nal^4-Gly^5). After shaking for 2 h at room temperature, the incubation was terminated by centrifugation at 1300 rpm for 5 min. Cell pellets were washed once with cold PBS followed by a second centrifugation step. Cell bound radioactivity was determined by using a gamma counter. Experiments were repeated 2-3 times in triplicates. IC50 values of the compounds were calculated by nonlinear regression using GraphPad Prism (GraphPad Prism 4.0 Software, Inc., San Diego, Calif., USA). Each data point is the average of three determinations.
Whereas for Jurkat cells the Bmax value was more dependent on origin and varies stronger with culture conditions, the number of binding sites (Bmax) on CMS5/CXCR4 cells was constant and better reproducible (23±6 fmol receptor protein).

CMS5/CXCR4 tumours = assay: Biodistribution of 125I-CPCR4 in CMS5 and CMS5/CXCR4 tumour bearing nude mice; format: in vivo; conditions: for accumulation in CMS5/CXCR4 tumours / accumulation in parental CMS5 (CXCR4 negative control) tumours: i.v.
Experimental: For animal experiments parental CMS5 cells and transduced CMS5/CXCR4 cells were injected subcutaneously in female Swiss nu/nu mice (Charles River, France). Therefore for each mouse 1.5×10^6 CMS5 cells and 2×10^6 CMS5/CXCR4 cells were resuspended in 75 μl PBS, respectively and mixed with the same volume Matrigel-Matrix HC (BD Biosciences, Heidelberg, Germany) according to the manufacturer's protocol. Subsequently cell suspension was inoculated at each shoulder, respectively. After 14-16 days of tumour growth mice were used for imaging and biodistribution purposes. All animal experiments were approved by the local authorities and are in compliance with the institutions guidelines.
The animals were sacrificed and dissected 30, 60 and 120 min after tracer injection. Organs of interest were removed and the radioactivity was measured in weighted tissue samples using the 1480 Wizard3 gamma counter from Wallac (Turku, Finland). Results are expressed as percent injected dose per gram tissue weight (% ID/g). Each value represents the mean of four to six animals.

[5] = 60 min (1 h) post injection, listed as radiolabeled CPCR4

T1 sequence (P61073 whole entry): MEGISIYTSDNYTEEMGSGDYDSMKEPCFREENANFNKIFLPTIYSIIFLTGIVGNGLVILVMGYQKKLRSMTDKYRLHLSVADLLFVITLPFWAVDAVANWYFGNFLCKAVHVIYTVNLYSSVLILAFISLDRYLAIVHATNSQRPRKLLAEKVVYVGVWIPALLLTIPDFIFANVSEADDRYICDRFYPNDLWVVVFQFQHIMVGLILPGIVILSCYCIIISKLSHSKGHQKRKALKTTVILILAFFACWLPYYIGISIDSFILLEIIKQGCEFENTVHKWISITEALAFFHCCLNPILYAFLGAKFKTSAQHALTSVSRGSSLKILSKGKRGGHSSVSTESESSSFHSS

N=C(N)NCCC[C@@H]1NC(=O)[C@H](CCCNCc2ccc3ccccc3c2)NC(=O)[C@@H](Cc2ccc(O)cc2)NC(=O)CNC(=O)[C@H](Cc2ccc3ccccc3c2)NC1=O [cyc[D-Tyr-Orn(N2)-Arg-Nal-Gly]] (HELM PEPTIDE1{[dY].[O=C([C@H](CCCNCc1ccc2ccccc2c1)N[*:1])[*:2]].R.[O=C([C@H](Cc1ccc2ccccc2c1)N[*:1])[*:2]].G}$PEPTIDE1,PEPTIDE1,1:R1-5:R2$$$V2.0)
IC50 (human CXCR4 [1]): 49 ± 1 nM

SDF-1α
mean fluorescence intensity, CMS5/CXCR4 cells (human CXCR4 [2]; SDF-1α treated, mock treated 209.0): 80.5
CMS5/CXCR4 cells stained positive for CXCR4 (human CXCR4 [2]; after pre-incubation with human SDF-1α 100 nM, 1 hr 37° C., control-treated […]): 54.7%

cyclo(D-Tyr^1[^125I]-Arg^2-Arg^3-Nal^4-Gly^5) [^125I-CPCR4]
tracer releasable from the receptor (human CXCR4 [3]): > 80%
specific binding (human CXCR4 [4]): > 90%
accumulation in intestine (CMS5/CXCR4 tumours; 30 min post injection): 16.0 (±4.7) % ID/g
accumulation in liver (CMS5/CXCR4 tumours; 30 min post injection): 27.7 (±4.9) % ID/g
accumulation in CMS5/CXCR4 tumours (CMS5/CXCR4 tumours; 30 min post injection): 4.7 (±1.3) % ID/g
accumulation in kidneys (CMS5/CXCR4 tumours; 60 min (1 h) post injection): 12.2 (±2.3) % ID/g
accumulation in CMS5/CXCR4 tumours (CMS5/CXCR4 tumours; 60 min (1 h) post injection): 5.5 (±1.5) % ID/g and 5.5 % ID/g
accumulation in parental CMS5 (CXCR4 negative control) tumours (CMS5/CXCR4 tumours; 60 min (1 h) post injection): 0.6 (±0.2) % ID/g
accumulation in CMS5/CXCR4 tumours (CMS5/CXCR4 tumours; [5]): 5.5±1.5 % ID/g
accumulation in parental CMS5 (CXCR4 negative control) tumours (CMS5/CXCR4 tumours; [5]): 0.6±0.2 % ID/g
accumulation in kidneys (CMS5/CXCR4 tumours; [5]): 12.2±2.3 % ID/g
tracer uptake in intestine (CMS5/CXCR4 tumours; 1 h post injection): 17.2±2.9 % ID/g
tracer uptake in liver (CMS5/CXCR4 tumours; 1 h post injection): 19.5±2.8 % ID/g
background accumulation (CMS5/CXCR4 tumours; 1 h post injection, other organs): < 1.0 % ID/g
accumulation in intestine (CMS5/CXCR4 tumours; 120 min post injection): 19.2 (±4.5) % ID/g
accumulation in kidneys (CMS5/CXCR4 tumours; 120 min post injection): 8.2 (±1.1) % ID/g
accumulation in liver (CMS5/CXCR4 tumours; 120 min post injection): 15.0 (±1.8) % ID/g
accumulation in CMS5/CXCR4 tumours (CMS5/CXCR4 tumours; 120 min post injection): 3.8 (±1.4) % ID/g
increased accumulation in CXCR4+ tumors compared to control tumors (CMS5/CXCR4 tumours; preliminary animal studies): around 10 times
